Experiment [1] has as its system HeLa cells (cervical cancer). Briefly: Cell proliferation measurement (Cell Titer Glo), HeLa. Format: cell-based. Particulars: Homo sapiens, 72 h treatment, read-out: Anti-proliferation IC50 HeLa (Cervical cancer). Summed up: (§1)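 Cells (1000/well; 500 for HeLa) plated overnight at 37 °C, then exposed to a ≥10-point compound dilution series for 72 h at 37 °C, DMSO 0.3% final as vehicle. Viability read by CellTiter-Glo luminescence; IC50 from 4-parameter fit against untreated wells.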
(In ATP-based viability assays light output follows the ATP content of the culture.)

The next experiment deals with SK-MEL-3 (melanoma). Briefly: Cell proliferation measurement (Cell Titer Glo), SK-MEL-3. It counts as cell-based. The settings on record: Homo sapiens, SK-MEL3, SK-MEL-3 cells, 72 h treatment, read-out: Anti-proliferation IC50 SK-MEL-3 (melanoma). Summed up:
as §1

In a further experiment the test system is IGR-37 (melanoma). Briefly: Cell proliferation measurement (Cell Titer Glo), IGR-37. Particulars: Homo sapiens, IGR-37 cells, 72 h treatment, read-out: Anti-proliferation IC50 IGR-37 (melanoma). Format: cell-based. As to the method: (§2) The antiproliferative activity of the compounds of the general formula (I) was examined in vitro in human cancer cells. For this purpose, 1000 cells (or 500 HeLa cells) were plated in 384-well plates with appropriate growth medium and incubated at 37° C. overnight. After 24 h, the cells on the test plate were treated with the compounds of the general formula (I) as and incubated at 37° C. for 72 h. The compounds were added to the cells by means of an HP D300 digital dispenser in a 10 (or more)-step dilution series. As control, the cells were treated with vehicle (DMSO at 0.3% final concentration). After 72 h, the cells were treated with 20 μl/well of 50% CTG solution in PBS (Promega Cell Titer Glo (catalogue #G755B and G756B)) and incubated at room temperature for 10 min, and luminescence was measured by means of a VICTOR V (Perkin Elmer), in order to determine cell viability at the end of treatment. The percentage effect on cell growth and the IC50 derived therefrom were determined for each test substance using the values from untreated wells (=percent viability). The IC50 values were calculated using a 4-parameter fit.

The next experiment concerns the target T1, human full length PDE3A (Homo sapiens, UniProt Q14432).
T1 construct: Sf9 cells overexpressing human full length PDE3A; purchased SB Drug Discovery, UK; host or cells: Sf9 cells (cell extract)
Briefly: PDE3A enzyme inhibition (3H-cAMP Scintillation Proximity Assay). Format: biochemical. The settings on record: PDE3A cell extract from Sf9 cells, 60 min room temperature; read-out: Target IC50 PDE3A IC50. Summed up:
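Sf9 cell extract overexpressing human full-length PDE3A, diluted for linear kinetics (<70% substrate used), in 50 mM Tris/HCl pH 7.5, 8.3 mM MgCl2, 1.7 mM EDTA, 0.2% BSA. [8-3H]cAMP substrate, 60 min at room temperature, yttrium SPA bead read-out; IC50 from sigmoidal curves of % activity.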
(In a scintillation proximity assay essentially only radioactivity close to the scintillant gives light.)

The target of another experiment is T2, human full length PDE3B (Homo sapiens, UniProt Q13370).
T2 construct: Sf9 cells overexpressing human full length PDE3B; purchased SB Drug Discovery, UK; host or cells: Sf9 cells (cell extract)
T2 sequence (Q13370 whole entry): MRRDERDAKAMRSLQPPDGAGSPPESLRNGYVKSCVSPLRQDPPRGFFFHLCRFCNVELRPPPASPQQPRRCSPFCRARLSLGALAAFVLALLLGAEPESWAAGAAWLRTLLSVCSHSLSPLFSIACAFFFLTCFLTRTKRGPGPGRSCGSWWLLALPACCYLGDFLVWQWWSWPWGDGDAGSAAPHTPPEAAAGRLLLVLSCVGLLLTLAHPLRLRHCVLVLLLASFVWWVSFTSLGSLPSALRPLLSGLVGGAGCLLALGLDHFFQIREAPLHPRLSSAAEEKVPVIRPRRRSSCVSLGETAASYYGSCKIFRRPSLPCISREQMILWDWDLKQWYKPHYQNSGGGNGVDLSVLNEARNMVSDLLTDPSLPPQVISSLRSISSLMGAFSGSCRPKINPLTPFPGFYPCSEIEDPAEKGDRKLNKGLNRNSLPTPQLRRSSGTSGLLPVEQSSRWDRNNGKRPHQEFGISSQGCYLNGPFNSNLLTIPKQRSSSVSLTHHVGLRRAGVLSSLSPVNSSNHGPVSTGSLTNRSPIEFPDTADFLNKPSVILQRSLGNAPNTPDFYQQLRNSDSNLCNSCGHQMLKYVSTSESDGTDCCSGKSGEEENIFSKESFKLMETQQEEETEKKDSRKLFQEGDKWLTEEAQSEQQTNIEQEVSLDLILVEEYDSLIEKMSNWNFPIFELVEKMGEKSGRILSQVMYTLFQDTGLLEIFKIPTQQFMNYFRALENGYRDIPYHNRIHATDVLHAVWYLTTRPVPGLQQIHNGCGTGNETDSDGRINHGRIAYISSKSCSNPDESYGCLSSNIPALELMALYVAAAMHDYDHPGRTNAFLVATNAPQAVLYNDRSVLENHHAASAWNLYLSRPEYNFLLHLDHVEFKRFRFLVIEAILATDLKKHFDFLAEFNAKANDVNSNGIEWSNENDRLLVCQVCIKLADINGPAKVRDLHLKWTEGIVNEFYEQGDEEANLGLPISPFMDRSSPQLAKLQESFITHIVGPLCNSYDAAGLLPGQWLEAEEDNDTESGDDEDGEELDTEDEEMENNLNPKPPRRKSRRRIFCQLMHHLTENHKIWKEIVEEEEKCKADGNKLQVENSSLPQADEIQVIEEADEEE
The experiment is described as follows: PDE3B enzyme inhibition (3H-cAMP Scintillation Proximity Assay). Format: biochemical. Particulars: PDE3B cell extract from Sf9 cells, 60 min room temperature; read-out: Target IC50 PDE3B IC50. In a few lines:
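SPA with Sf9 cell extract overexpressing human full-length PDE3B, diluted for linear kinetics and <70% substrate turnover, in 50 mM Tris/HCl pH 7.5, 8.3 mM MgCl2, 1.7 mM EDTA, 0.2% BSA. [8-3H]cAMP substrate, 60 min at room temperature, stopped with yttrium SPA beads. IC50 from sigmoidal fit of % activity vs log concentration.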

The next experiment concerns NCI-H1734. The experiment is described as follows: Cell proliferation measurement (Cell Titer Glo), NCI-H1734. It counts as cell-based. Particulars: Homo sapiens, NCI-H1734 cells, 72 h treatment, read-out: Anti-proliferation IC50 NCI-H1734. On the procedure:
as §2

The next experiment relates to H4. Briefly: Cell proliferation measurement (Cell Titer Glo), H4. Format: cell-based. The settings on record: Homo sapiens, H4 cells, 72 h treatment, read-out: Anti-proliferation IC50 H4. As to the method:
as §2

T1 sequence (Q14432 whole entry): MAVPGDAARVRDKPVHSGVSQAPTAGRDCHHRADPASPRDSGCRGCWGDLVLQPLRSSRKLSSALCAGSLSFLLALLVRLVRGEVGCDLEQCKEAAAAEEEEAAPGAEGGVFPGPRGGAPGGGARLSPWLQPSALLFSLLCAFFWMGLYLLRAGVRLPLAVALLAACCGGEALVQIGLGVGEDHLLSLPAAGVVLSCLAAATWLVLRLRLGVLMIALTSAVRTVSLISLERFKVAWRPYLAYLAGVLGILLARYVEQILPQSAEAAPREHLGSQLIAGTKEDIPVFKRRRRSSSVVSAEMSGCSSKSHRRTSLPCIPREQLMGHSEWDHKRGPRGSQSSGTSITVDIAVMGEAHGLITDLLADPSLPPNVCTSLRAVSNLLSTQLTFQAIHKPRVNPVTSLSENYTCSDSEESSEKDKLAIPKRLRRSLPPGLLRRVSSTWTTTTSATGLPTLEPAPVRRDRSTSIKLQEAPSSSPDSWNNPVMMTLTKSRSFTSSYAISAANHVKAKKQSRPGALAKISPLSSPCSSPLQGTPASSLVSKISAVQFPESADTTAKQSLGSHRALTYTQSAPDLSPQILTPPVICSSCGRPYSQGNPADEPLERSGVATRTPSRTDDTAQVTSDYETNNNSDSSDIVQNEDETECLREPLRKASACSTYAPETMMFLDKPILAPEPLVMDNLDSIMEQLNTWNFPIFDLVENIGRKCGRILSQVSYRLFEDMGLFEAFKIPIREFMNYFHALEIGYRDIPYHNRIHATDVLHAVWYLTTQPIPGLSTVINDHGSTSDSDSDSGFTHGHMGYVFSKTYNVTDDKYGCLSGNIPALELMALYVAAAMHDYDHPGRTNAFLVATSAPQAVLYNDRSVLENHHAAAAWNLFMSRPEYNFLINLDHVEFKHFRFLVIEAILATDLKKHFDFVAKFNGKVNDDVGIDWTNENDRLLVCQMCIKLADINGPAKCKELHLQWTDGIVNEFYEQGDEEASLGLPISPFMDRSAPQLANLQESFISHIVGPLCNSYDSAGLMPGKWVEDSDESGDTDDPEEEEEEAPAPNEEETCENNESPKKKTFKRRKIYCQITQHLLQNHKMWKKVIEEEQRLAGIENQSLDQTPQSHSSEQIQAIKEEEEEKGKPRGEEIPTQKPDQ

As for `O=C1CCC(c2ccc(NCC(O)C(F)(F)F)c(C(F)(F)F)c2)=NN1` (racemic) [Example 130, 6-[4-{[3,3,3-trifluoro-2-hydroxypropyl]amino}-3-(trifluoromethyl)phenyl]-4,5-dihydropyridazin-3(2H)-one (racemic)], the IC50 was 4.32 nM in experiment [1]; 8.73 nM in the experiment on SK-MEL-3 (melanoma); 9.03 nM with IGR-37 (melanoma); 89 nM at human full length PDE3A; 86 nM on human full length PDE3B.

For the compound `Cc1cc(C2=NNC(=O)CC2)ccc1-c1ccc(F)cc1` [Example 3, 6-(4′-Fluoro-2-methylbiphenyl-4-yl)-4,5-dihydropyridazin-3(2H)-one], the IC50 in experiment [1] is 4.59 nM; in the experiment with SK-MEL-3 (melanoma), 8.42 nM; in the experiment with NCI-H1734 it was 27.7 nM; with H4, 36.6 nM; on human full length PDE3A it was 190 nM; at human full length PDE3B, 150 nM.

As to `O=C1CCC(c2cc(F)c(N3CCC(F)(F)C3)c(F)c2)=NN1` [Example 13, 6-[4-(3,3-Difluoropyrrolidin-1-yl)-3,5-difluorophenyl]-4,5-dihydropyridazin-3(2H)-one], the IC50 came out at 5.59 nM in experiment [1]; 13.8 nM in the experiment with SK-MEL-3 (melanoma); 32 nM in the experiment on NCI-H1734; 41.1 nM with H4; 310 nM on human full length PDE3A; 250 nM at human full length PDE3B.

Turning to `O=C1CCC(c2cc(F)c(N3CC4CC4C3)c(F)c2)=NN1` (stereo not drawn) [Example 14, 6-[4-(3-Azabicyclo[3.1.0]hex-3-yl)-3,5-difluorophenyl]-4,5-dihydropyridazin-3(2H)-one], the IC50 in experiment [1] was 2.16 nM; with SK-MEL-3 (melanoma), 5.84 nM; in the experiment with NCI-H1734 it was 18.8 nM; in the experiment with H4 it was 30.9 nM; at human full length PDE3A, 180 nM; at human full length PDE3B, 77 nM.

With `O=C1CCC(c2ccc(N3CCC(F)(F)C3)c(C(F)(F)F)c2)=NN1` [Example 22, 6-[4-(3,3-Difluoropyrrolidin-1-yl)-3-(trifluoromethyl)phenyl]-4,5-dihydropyridazin-3(2H)-one], the IC50 in experiment [1] is 5.2 nM; with SK-MEL-3 (melanoma), 718 nM; in the experiment with IGR-37 (melanoma), 8.82 nM; on human full length PDE3A, 159 nM; at human full length PDE3B, 148 nM.

On to `Cc1cccc(-c2ccc(C3=NNC(=O)CC3)cc2C)c1` [Example 120, 6-(2,3′-dimethyl[1,1′-biphenyl]-4-yl)-4,5-dihydropyridazin-3(2H)-one], for which the IC50 in experiment [1] was 45.9 nM; in the experiment on SK-MEL-3 (melanoma), more than 100 nM; on human full length PDE3A, 200 nM; on human full length PDE3B, 180 nM.

With `Cc1ccc(-c2ccc(C3=NNC(=O)CC3)cc2C)cc1` [Example 121, 6-(2,4′-dimethyl[1,1′-biphenyl]-4-yl)-4,5-dihydropyridazin-3(2H)-one], the IC50 in experiment [1] was 7.15 nM; with SK-MEL-3 (melanoma) it was 33.6 nM; at human full length PDE3A, 230 nM; on human full length PDE3B, 230 nM.

Regarding `Cc1cc(C2=NNC(=O)CC2)ccc1-c1ccc(Cl)cc1` [Example 122, 6-(4′-chloro-2-methyl[1,1′-biphenyl]-4-yl)-4,5-dihydropyridazin-3(2H)-one], the IC50 in experiment [1] came to 2.67 nM; in the experiment with SK-MEL-3 (melanoma), 9.92 nM; at human full length PDE3A it was 280 nM; on human full length PDE3B, 200 nM.

Turning to `O=C1CCC(c2ccc(N3CCOCC3)cc2)=NN1` [Example 123, 6-[4-(morpholin-4-yl)phenyl]-4,5-dihydropyridazin-3(2H)-one], the IC50 in experiment [1] is 79.8 nM; with SK-MEL-3 (melanoma), more than 100 nM; in the experiment on IGR-37 (melanoma), 276 nM; on human full length PDE3B it was more than 1000 nM.

Consider `O=C1CCC(c2cc(Cl)c(N3CCOCC3)c(Cl)c2)=NN1` [Example 124, 6-[3,5-dichloro-4-(morpholin-4-yl)phenyl]-4,5-dihydropyridazin-3(2H)-one], for which the IC50 worked out at 6.9 nM in experiment [1]; 16.8 nM in the experiment on SK-MEL-3 (melanoma); 32.9 nM in the experiment with IGR-37 (melanoma); 59 nM on human full length PDE3A; 73 nM at human full length PDE3B.

For `O=C1CCC(c2ccc(Cl)c(Cl)c2)=NN1` [Example 125, 6-(3,4-Dichlorophenyl)-4,5-dihydropyridazin-3(2H)-one], the IC50 in experiment [1] is 16 nM; in the experiment on SK-MEL-3 (melanoma), 36.1 nM; in the experiment with IGR-37 (melanoma) it was 55.1 nM; on human full length PDE3A, 625 nM; at human full length PDE3B, 335 nM.

For `O=C1CCC(c2ccc(N3CCOCC3)c(C(F)(F)F)c2)=NN1` [Example 126, 6-[4-(Morpholin-4-yl)-3-(trifluoromethyl)phenyl]-4,5-dihydropyridazin-3(2H)-one], the IC50 in experiment [1] was determined as 5.29 nM; in the experiment with SK-MEL-3 (melanoma) it was 7.06 nM; on human full length PDE3A, 59 nM; at human full length PDE3B it was 95 nM.

With `O=C1CCC(c2ccc(-c3cnn(C(F)F)c3)c(C(F)(F)F)c2)=NN1` [Example 127, 6-{4-[1-(difluoromethyl)-1H-pyrazol-4-yl]-3-(trifluoromethyl)phenyl}-4,5-dihydropyridazin-3(2H)-one], the IC50 in experiment [1] was 1.78 nM; in the experiment with SK-MEL-3 (melanoma), 3.64 nM; with IGR-37 (melanoma), 5.37 nM; on human full length PDE3A, 73 nM; on human full length PDE3B, 77 nM.

On to `O=C1CCC(c2ccc(-c3ccc(F)cc3)c(C(F)(F)F)c2)=NN1` [Example 128, 6-[4′-fluoro-2-(trifluoromethyl)[1,1′-biphenyl]-4-yl]-4,5-dihydropyridazin-3(2H)-one], for which the IC50 in experiment [1] worked out at 7.79 nM; in the experiment on SK-MEL-3 (melanoma), 15.2 nM; in the experiment with IGR-37 (melanoma) it was 34.8 nM; at human full length PDE3A, 240 nM; at human full length PDE3B, 210 nM.

On to `COCCNc1ccc(C2=NNC(=O)CC2)cc1C(F)(F)F` [Example 129, 6-{4-[(2-methoxyethyl)amino]-3-(trifluoromethyl)phenyl}-4,5-dihydropyridazin-3(2H)-one], for which the IC50 in experiment [1] amounted to 2.14 nM; in the experiment on SK-MEL-3 (melanoma) it was 4.58 nM; with IGR-37 (melanoma) it was 4.77 nM; on human full length PDE3A, 120 nM; on human full length PDE3B, 210 nM.

For the compound `O=C1CCC(c2ccc(-n3ccc(C(F)(F)F)n3)c(F)c2)=NN1` [Example 131, 6-{3-fluoro-4-[3-(trifluoromethyl)-1H-pyrazol-1-yl]phenyl}-4,5-dihydropyridazin-3(2H)-one], the IC50 in experiment [1] was found to be 17.7 nM; with SK-MEL-3 (melanoma), 36.2 nM; in the experiment on IGR-37 (melanoma), 43.8 nM; at human full length PDE3A, 620 nM; on human full length PDE3B, 385 nM.

Source of the values: patent publication US11897867B2, “6-phenyl-4,5-dihydropyridazin-3(2H)-one derivatives as PDE3A and PDE3B inhibitors for treating cancer” (Bayer Aktiengesellschaft, priority 2017, dated 2024).
